Key:
Assay in all cases: relative viability (nuclei count vs DMSO), 5 days (fraction); higher = more cells survive
[1] = tested on: 201T
Procedure, shortened: (§1)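 Relative viability equals treated-well nuclei counts divided by vehicle-well nuclei counts. Counts came from 4× images of lung cancer cell lines grown in 1536-well plates for 5 days after pin-tool dosing on the day after seeding. Dosing used one drug alone or a fixed anchor-drug dose plus five library-drug doses (not always all listed) in √10 steps, and values are medians of duplicate plates.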

[2] = tested on: A-427
Procedure, shortened: as §1

[3] = tested on: BEN
Procedure, shortened: as §1

[4] = tested on: COR-L23
Procedure, shortened: as §1

[5] = tested on: EKVX
Procedure, shortened: as §1

[6] = tested on: EMC-BAC-2
Procedure, shortened: as §1

[7] = tested on: EPLC-272H
Procedure, shortened: as §1

[8] = tested on: HCC-44
Procedure, shortened: as §1

[9] = tested on: HCC-827
Procedure, shortened: as §1

[10] = tested on: LCLC-103H
Procedure, shortened: as §1

[11] = tested on: LK-2
Procedure, shortened: as §1

[12] = tested on: LXF-289
Procedure, shortened: as §1

[13] = tested on: NCI-H1650
Procedure, shortened: as §1

[14] = tested on: NCI-H1651
Procedure, shortened: as §1

[15] = tested on: NCI-H1793
Procedure, shortened: as §1

[16] = tested on: NCI-H1915
Procedure, shortened: as §1

[17] = tested on: NCI-H2087
Procedure, shortened: as §1

[18] = tested on: NCI-H2126
Procedure, shortened: as §1

[19] = tested on: NCI-H2347
Procedure, shortened: as §1

[20] = tested on: NCI-H358
Procedure, shortened: as §1

[21] = tested on: NCI-H460
Procedure, shortened: as §1

[22] = tested on: NCI-H596
Procedure, shortened: as §1

[23] = tested on: SW 1573
Procedure, shortened: as §1

## O=c1[nH]c2ccccc2n1C1CCN(CCCC(c2ccc(F)cc2)c2ccc(F)cc2)CC1 [Pimozide] + O=C(CCCCCCC(=O)Nc1ccccc1)NO [Vorinostat] (partner 1 µM)
[1]; first compound 0.08 µM
  relative viability: 0.881
[1]; first compound 0.253 µM
  relative viability: 0.964
[1]; first compound 0.8 µM
  relative viability: 0.863
[1]; first compound 2.53 µM
  relative viability: 0.942
[1]; first compound 8 µM
  relative viability: 0.72
[2]; first compound 0.08 µM
  relative viability: 0.893
[2]; first compound 0.253 µM
  relative viability: 0.875
[2]; first compound 0.8 µM
  relative viability: 0.775
[2]; first compound 2.53 µM
  relative viability: 0.854
[2]; first compound 8 µM
  relative viability: 0.815
[3]; first compound 0.08 µM
  relative viability: 0.558
[3]; first compound 0.253 µM
  relative viability: 0.579
[3]; first compound 0.8 µM
  relative viability: 0.607
[3]; first compound 2.53 µM
  relative viability: 0.601
[3]; first compound 8 µM
  relative viability: 0.603
[4]; first compound 0.08 µM
  relative viability: 0.459
[4]; first compound 0.253 µM
  relative viability: 0.414
[4]; first compound 0.8 µM
  relative viability: 0.343
[4]; first compound 2.53 µM
  relative viability: 0.432
[4]; first compound 8 µM
  relative viability: 0.495
[5]; first compound 0.253 µM
  relative viability: 0.712
[5]; first compound 0.8 µM
  relative viability: 0.601
[5]; first compound 2.53 µM
  relative viability: 0.812
[5]; first compound 8 µM
  relative viability: 0.641
[6]; first compound 0.08 µM
  relative viability: 0.433
[6]; first compound 0.253 µM
  relative viability: 0.45
[6]; first compound 0.8 µM
  relative viability: 0.384
[6]; first compound 2.53 µM
  relative viability: 0.451
[6]; first compound 8 µM
  relative viability: 0.456
[7]; first compound 0.08 µM
  relative viability: 0.402
[7]; first compound 0.253 µM
  relative viability: 0.453
[7]; first compound 0.8 µM
  relative viability: 0.417
[7]; first compound 2.53 µM
  relative viability: 0.418
[7]; first compound 8 µM
  relative viability: 0.307
[8]; first compound 0.08 µM
  relative viability: 1.12
[8]; first compound 0.253 µM
  relative viability: 1.12
[8]; first compound 0.8 µM
  relative viability: 0.923
[8]; first compound 2.53 µM
  relative viability: 1.12
[8]; first compound 8 µM
  relative viability: 0.975
[9]; first compound 0.253 µM
  relative viability: 0.791
[9]; first compound 0.8 µM
  relative viability: 0.738
[9]; first compound 2.53 µM
  relative viability: 0.785
[9]; first compound 8 µM
  relative viability: 0.843
[10]; first compound 0.08 µM
  relative viability: 0.814
[10]; first compound 0.253 µM
  relative viability: 0.802
[10]; first compound 0.8 µM
  relative viability: 0.598
[10]; first compound 2.53 µM
  relative viability: 0.759
[10]; first compound 8 µM
  relative viability: 0.717
[11]; first compound 0.08 µM
  relative viability: 0.2
[11]; first compound 0.253 µM
  relative viability: 0.342
[11]; first compound 0.8 µM
  relative viability: 0.254
[11]; first compound 2.53 µM
  relative viability: 0.267
[11]; first compound 8 µM
  relative viability: 0.395
[12]; first compound 0.08 µM
  relative viability: 0.796
[12]; first compound 0.253 µM
  relative viability: 0.748
[12]; first compound 0.8 µM
  relative viability: 0.718
[12]; first compound 2.53 µM
  relative viability: 0.88
[12]; first compound 8 µM
  relative viability: 0.755
[13]; first compound 0.08 µM
  relative viability: 0.449
[13]; first compound 0.253 µM
  relative viability: 0.571
[13]; first compound 0.8 µM
  relative viability: 0.687
[13]; first compound 2.53 µM
  relative viability: 0.591
[13]; first compound 8 µM
  relative viability: 0.546
[14]; first compound 0.08 µM
  relative viability: 0.565
[14]; first compound 0.253 µM
  relative viability: 0.507
[14]; first compound 0.8 µM
  relative viability: 0.599
[14]; first compound 2.53 µM
  relative viability: 0.578
[14]; first compound 8 µM
  relative viability: 0.593
[15]; first compound 0.08 µM
  relative viability: 0.642
[15]; first compound 0.253 µM
  relative viability: 0.761
[15]; first compound 0.8 µM
  relative viability: 0.693
[15]; first compound 2.53 µM
  relative viability: 0.761
[15]; first compound 8 µM
  relative viability: 0.624
[16]; first compound 0.08 µM
  relative viability: 0.525
[16]; first compound 0.253 µM
  relative viability: 0.48
[16]; first compound 2.53 µM
  relative viability: 0.432
[16]; first compound 8 µM
  relative viability: 0.487
[17]; first compound 0.08 µM
  relative viability: 0.802
[17]; first compound 0.253 µM
  relative viability: 0.597
[17]; first compound 2.53 µM
  relative viability: 0.615
[17]; first compound 8 µM
  relative viability: 0.774
[18]; first compound 0.08 µM
  relative viability: 0.704
[18]; first compound 0.253 µM
  relative viability: 0.818
[18]; first compound 0.8 µM
  relative viability: 0.782
[18]; first compound 2.53 µM
  relative viability: 0.785
[18]; first compound 8 µM
  relative viability: 0.868
[19]; first compound 0.08 µM
  relative viability: 0.685
[19]; first compound 0.253 µM
  relative viability: 0.594
[19]; first compound 0.8 µM
  relative viability: 0.537
[19]; first compound 2.53 µM
  relative viability: 0.537
[19]; first compound 8 µM
  relative viability: 0.492
[20]; first compound 0.08 µM
  relative viability: 0.697
[20]; first compound 0.253 µM
  relative viability: 0.685
[20]; first compound 0.8 µM
  relative viability: 0.639
[20]; first compound 2.53 µM
  relative viability: 0.906
[20]; first compound 8 µM
  relative viability: 0.679
[21]; first compound 0.08 µM
  relative viability: 0.727
[21]; first compound 0.253 µM
  relative viability: 0.654
[21]; first compound 0.8 µM
  relative viability: 0.711
[21]; first compound 2.53 µM
  relative viability: 0.681
[21]; first compound 8 µM
  relative viability: 0.664
[22]; first compound 0.08 µM
  relative viability: 0.702
[22]; first compound 0.253 µM
  relative viability: 0.598
[22]; first compound 0.8 µM
  relative viability: 0.467
[22]; first compound 2.53 µM
  relative viability: 0.583
[22]; first compound 8 µM
  relative viability: 0.549
[23]; first compound 0.08 µM
  relative viability: 0.83
[23]; first compound 0.253 µM
  relative viability: 0.63
[23]; first compound 0.8 µM
  relative viability: 0.579
[23]; first compound 2.53 µM
  relative viability: 0.323
[23]; first compound 8 µM
  relative viability: 0.33

Source: the supplement of paper PMC10307832
